Assay results: patent US9278925B2, “Substituted 3-(biphenyl-3-yl)-4-hydroxy-8-methoxy-1-azaspiro[4.5]dec-3-en-2-one” (BAYER INTELLECTUAL PROPERTY GMBH, priority 2011, dated 2016)
Where “and” joins values, the source holds several entries; their conditions need not be identical. Equal values may be shown once. Read-outs that look alike come from different tables or passages of the source.

How the values were obtained:
human ACC1 [1] = molecular target: human ACC1 (Homo sapiens, UniProt Q13085); assay: Human ACC1 enzyme assay (ADP-Glo); type: biochemical; settings: individual measurement (measurement no./preparation no. in table); read-out: ACC 1 IC50
Method: (§1) Typical concentrations were in the range of 1.75 μl.

human ACC1 [2] = assay: Human ACC1 enzyme assay (ADP-Glo); type: biochemical; settings: for Ratio IC50s ACC2/ACC1 (respective measurement): pairwise, same dilution series
Method: as §1

[3] = Membrane affinity logMA (MA-Transil); type: physicochemical; settings: buffer pH 7.4
Method: Assays for Determining Membrane Affinity logMA and Protein Binding to Human Serum Albumin (HSA):
Determination of membrane affinity and protein binding to human serum albumin (HSA) was carried out via Transil technology (literature: A. Loidl-Stahlhofen, A. Eckert, T. Hartmann, M. Schöttner J Pharm Sci 90, 599-606 (2001)). Transil® (commercially available from Sovicell in Leipzig, Germany) are glass beads (diameter 10-12 μm) coated with a double-layer membrane of phosphatidylcholine (MA-Transil) or covalently attached human serum albumin (HSA-Transil).
To determine the logMA and the protein binding constant to HSA, the commercially available TRANSIL Intestinal Absorption & HSA Binding Combined Assay Kit was used. This is a 96-well microtitre plate (96 well-MTP) which is filled with Transil and can be used to determine MA-Transil and HSA-Transil binding of in each case eight active compounds. For each active compound, the Transil plate provides a row of 12 wells. Two wells serve as reference and are only filled with buffer pH 7.4. Five further wells contain MA-Transil in various increasing concentrations, the five remaining wells contain HSA-Transil in various increasing concentrations.
To determine binding of an active compound to Transil, the supernatant of the wells with Transil was quantified against the reference solution without Transil via HPLC-MS coupling (HPLC-MS=high performance liquid chromatography/mass spectrometry).
This is how the individual steps of the assay were carried out:
From the internal substance store, the active compounds were delivered in a 96-well MTP. This plate is referred to as mother plate. Each well contained 30 μl of a 10 mmol solution of active compound in DMSO (dimethyl sulphoxide). Two wells at the start (well A1) and at the end of the plate (well H12) were filled with 30 μl of a 10 mmol solution of warfarin in DMSO. Warfarin, whose membrane affinity and binding to HSA is known, serves to check whether the measurement is correct. The mother plate was used to prepare a daughter plate with a 1 to 4000 dilution with a mixture of buffer pH 7.4 and DMSO in a ratio of 1+1. The active compound concentration of each well was 2.5 μmol/liter, the volume of each well was 400 μl.
Using a Hamilton pipetting robot Microlab STAR, the 96 active compounds from the daughter plate were divided onto 12 Transil plates in total. From each well of the daughter plate, 12 times 20 μl were removed. The concentration of each well of the Transil plate was 0.25 μmol/liter, which corresponds to a dilution of 1 to 10. The DMSO content was 5%.
The filled Transil plates were each resuspended for two minutes, then allowed to stand at room temperature for at least two minutes and then centrifuged at 600 rotations per minute for five minutes. The pipetting robot was then used to remove 20 μl of supernatant from each well of the Transil plate and to transfer these to a separate microtitre plate. Here, the supernatants of in each case four Transil plates were pooled in a microtitre plate, so that at the end there were three pooled microtitre plates with in each case 80 μl of solution and an active compound concentration of 62.5 nM per well.
Prior to quantification of the active compounds by HPLC-MS, an optimization has to be carried out for each active compound where by way of a single injection daughter ion and optimum electrical voltages are determined. To this end, the pipetting robot prepared a dilution of the mother plate of 1 to 10 000 000 in an acetonitrile/water mixture in a ratio of 8+2 in a separate microtitre plate. This microtitre plate was measured by HPLC-MS using the software Discovery Quant Optimize from AB Sciex. The three pooled microtitre plates were measured by HPLC-MS using the software Discovery Quant Analyze from AB Sciex. […]

[4] = molecular target: human serum albumin (HSA) (Homo sapiens (Human), UniProt P02768); assay: Protein binding to human serum albumin (HSA-Transil); settings: buffer pH 7.4
Method: Assays for Determining Membrane Affinity logMA and Protein Binding to Human Serum Albumin (HSA): Determination of membrane affinity and protein binding to human serum albumin (HSA) was carried out via Transil technology (literature: A. Loidl-Stahlhofen, A. Eckert, T. Hartmann, M. […] Pharm Sci 90, 599-606 (2001)). Transil® (commercially available from Sovicell in Leipzig, Germany) are glass beads (diameter 10-12 μm) coated with a double-layer membrane of phosphatidylcholine (MA-Transil) or covalently attached human serum albumin (HSA-Transil). To determine the logMA and the protein binding constant to HSA, the commercially available TRANSIL Intestinal Absorption & HSA Binding Combined Assay Kit was used. This is a 96-well microtitre plate (96 well-MTP) which is filled with Transil and can be used to determine MA-Transil and HSA-Transil binding of in each case eight active compounds. […] Two wells serve as reference and are only filled with buffer pH 7.4. Five further wells contain MA-Transil in various increasing concentrations, the five remaining wells contain HSA-Transil in various increasing concentrations. To determine binding of an active compound to Transil, the supernatant of the wells with Transil was quantified against the reference solution without Transil via HPLC-MS coupling (HPLC-MS=high performance liquid chromatography/mass spectrometry). This is how the individual steps of the assay were carried out: From the internal substance store, the active compounds were delivered in a 96-well MTP. This plate is referred to as mother plate. […] Warfarin, whose membrane affinity and binding to HSA is known, serves to check whether the measurement is correct. […] Using a Hamilton pipetting robot Microlab STAR, the 96 active compounds from the daughter plate were divided onto 12 Transil plates in total. From each well of the daughter plate, 12 times 20 μl were removed. The concentration of each well of the Transil plate was 0.25 μmol/liter, which corresponds to a dilution of 1 to 10. […] The filled Transil plates were each resuspended for two minutes, then allowed to stand at room temperature for at least two minutes and then centrifuged at 600 rotations per minute for five minutes. The pipetting robot was then used to remove 20 μl of supernatant from each well of the Transil plate and to transfer these to a separate microtitre plate. […] Prior to quantification of the active compounds by HPLC-MS, an optimization has to be carried out for each active compound where by way of a single injection daughter ion and optimum electrical voltages are determined. […] This microtitre plate was measured by HPLC-MS using the software Discovery Quant Optimize from AB Sciex. The three pooled microtitre plates were measured by HPLC-MS using the software Discovery Quant Analyze from AB Sciex. • Sciex Triple Quad 5500 mass spectrometer (from AB Sciex) • PAL Autosampler DLW Option Software: Analyst 1.4 (from AB Sciex) • Discovery Quant Optimize (from AB Sciex) • Discovery Quant Analyze (from AB Sciex) Optimization: […] Column: Poroshell 120 SB-C18 2.7 μm 3×30 mm Injection volume: 2 μl Flow rate: 1 ml/min: […] Evaluation of the HPLC peaks was carried out using Discovery Quant Analyze. The results (logMA and binding constant to HSA Kd) were calculated using an Excel workbook provided by Sovicell.

[5] = Plasma protein binding by equilibrium dialysis; type: in vitro ADME
Method: The binding of test substances to plasma proteins is determined by equilibrium dialysis by means of the Ht-dialysis apparatus (96-well) made of Teflon and a semipermeable membrane (regenerated cellulose, MWCO 12-14K). This separates 150 μl each of a plasma side and a buffer side (50 mM phosphate buffer). The test substance is added in 2 concentrations (usually 3 and 0.3 μM) to the plasma side and binds to plasma proteins. The unbound fraction of the test substance passes through the membrane and is distributed on either side until equilibrium is established (after approx. 6-8 h at 37° C.). The substance concentration on the buffer side and the plasma side is determined by LC-MS analysis. For this, both sides are brought by dilution with buffer or plasma to the same matrix (10% plasma) and then precipitated with methanol. The free (unbound) fraction (fu) is calculated from the quotient of the buffer and plasma concentration. Stability tests and recovery tests are run concurrently as controls. In addition, the substance in buffer is dialysed against buffer, to check the nonspecific binding to apparatus and membrane and establishment of equilibrium. Because during incubation the osmotic pressure of the plasma proteins leads to dilution of the plasma (volume shift), this possible error is determined by weighing blank plasma samples and is included in the calculation of fu. Establishment of equilibrium and plasma stability should have a value not lower than 80% and the recovery should be at least 30%. A free fraction of <1% is regarded as high, between 1 and 10% as moderate and >10% as low plasma protein binding.

[6] = reference substances with known distribution coefficients; cited from earlier work
[7] = human plasma, read-out: fu [%] (human)
[8] = mouse plasma, read-out: fu [%] (mouse)

Chain of human serum albumin (HSA) (P02768 25-609): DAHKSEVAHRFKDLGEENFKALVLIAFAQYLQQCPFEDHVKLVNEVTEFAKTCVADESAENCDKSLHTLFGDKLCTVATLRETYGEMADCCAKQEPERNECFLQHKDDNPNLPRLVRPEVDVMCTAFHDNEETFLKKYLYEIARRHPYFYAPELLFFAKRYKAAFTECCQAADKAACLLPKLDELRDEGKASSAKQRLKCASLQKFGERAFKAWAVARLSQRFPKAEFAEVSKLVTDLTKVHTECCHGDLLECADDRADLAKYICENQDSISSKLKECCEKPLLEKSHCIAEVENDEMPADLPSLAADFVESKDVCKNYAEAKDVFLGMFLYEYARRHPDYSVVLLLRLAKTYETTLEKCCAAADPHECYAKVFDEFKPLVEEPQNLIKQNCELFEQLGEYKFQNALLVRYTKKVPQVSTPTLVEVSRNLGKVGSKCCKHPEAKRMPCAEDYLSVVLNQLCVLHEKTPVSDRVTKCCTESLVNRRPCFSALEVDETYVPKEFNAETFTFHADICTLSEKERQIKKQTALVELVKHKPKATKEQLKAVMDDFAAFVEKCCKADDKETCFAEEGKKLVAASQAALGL

Row | SMILES | IC50 (human ACC1 [1]) | Selectivity ACC1 vs. ACC2 (mean of the individual measurements ± standard deviation) (human ACC1 [2]) | Ratio IC50s ACC2/ACC1 (respective measurement) (human ACC1 [2]) | logMA [3] | Kd [4] [nM] | fraction unbound [5, 7] | fraction unbound [5, 8] | log P [6]
1 | Cc1ccc(-c2ccc(Cl)cc2)cc1C1=C(O)[C@]2(CC[C@H](C(F)(F)F)CC2)NC1=O [V.1-b, (5s,8s)-3-(4′-Chloro-4-methylbiphenyl-3-yl)-4-hydroxy-8-(trifluoromethyl)-1-azaspiro[4.5]dec-3-en-2-one] | 109 nM and 111 nM | 9.8 ± 1.4 | 11.2 and 8.4 | 2.38 | 3070 | 0.0007 | 0.0241 | –
2 | COC(=O)c1ccccc1 [methyl benzoate] | – | – | – | – | – | – | – | 2.1
3 | Cc1ccc(-c2ccc(Cl)c(F)c2)cc1C1=C(O)[C@]2(CC[C@H](C(F)(F)F)CC2)NC1=O [V.2-b, (5s,8s)-3-(4′-Chloro-3′-fluoro-4-methylbiphenyl-3-yl)-4-hydroxy-8-(trifluoromethyl)-1-azaspiro[4.5]dec-3-en-2-one] | – | 9.4 ± 0.8 | 8.6 and 10.3 | 2.55 | – | 0.0005 | 0.019 | –
4 | Clc1ccc(C(c2ccc(Cl)cc2)C(Cl)(Cl)Cl)cc1 [DDT] | – | – | – | – | – | – | – | 6.2
5 | c1ccc(-c2cccc(-c3ccccc3)n2)cc1 [2,6-diphenylpyridine] | – | – | – | – | – | – | – | 4.9
